Target: Voltage-gated inwardly rectifying potassium channel KCNH2 (Homo sapiens, UniProt Q12809)
Assay: Inhibition of human ERG
Assay type: toxicity

Sequence of Voltage-gated inwardly rectifying potassium channel KCNH2 (Q12809 whole entry): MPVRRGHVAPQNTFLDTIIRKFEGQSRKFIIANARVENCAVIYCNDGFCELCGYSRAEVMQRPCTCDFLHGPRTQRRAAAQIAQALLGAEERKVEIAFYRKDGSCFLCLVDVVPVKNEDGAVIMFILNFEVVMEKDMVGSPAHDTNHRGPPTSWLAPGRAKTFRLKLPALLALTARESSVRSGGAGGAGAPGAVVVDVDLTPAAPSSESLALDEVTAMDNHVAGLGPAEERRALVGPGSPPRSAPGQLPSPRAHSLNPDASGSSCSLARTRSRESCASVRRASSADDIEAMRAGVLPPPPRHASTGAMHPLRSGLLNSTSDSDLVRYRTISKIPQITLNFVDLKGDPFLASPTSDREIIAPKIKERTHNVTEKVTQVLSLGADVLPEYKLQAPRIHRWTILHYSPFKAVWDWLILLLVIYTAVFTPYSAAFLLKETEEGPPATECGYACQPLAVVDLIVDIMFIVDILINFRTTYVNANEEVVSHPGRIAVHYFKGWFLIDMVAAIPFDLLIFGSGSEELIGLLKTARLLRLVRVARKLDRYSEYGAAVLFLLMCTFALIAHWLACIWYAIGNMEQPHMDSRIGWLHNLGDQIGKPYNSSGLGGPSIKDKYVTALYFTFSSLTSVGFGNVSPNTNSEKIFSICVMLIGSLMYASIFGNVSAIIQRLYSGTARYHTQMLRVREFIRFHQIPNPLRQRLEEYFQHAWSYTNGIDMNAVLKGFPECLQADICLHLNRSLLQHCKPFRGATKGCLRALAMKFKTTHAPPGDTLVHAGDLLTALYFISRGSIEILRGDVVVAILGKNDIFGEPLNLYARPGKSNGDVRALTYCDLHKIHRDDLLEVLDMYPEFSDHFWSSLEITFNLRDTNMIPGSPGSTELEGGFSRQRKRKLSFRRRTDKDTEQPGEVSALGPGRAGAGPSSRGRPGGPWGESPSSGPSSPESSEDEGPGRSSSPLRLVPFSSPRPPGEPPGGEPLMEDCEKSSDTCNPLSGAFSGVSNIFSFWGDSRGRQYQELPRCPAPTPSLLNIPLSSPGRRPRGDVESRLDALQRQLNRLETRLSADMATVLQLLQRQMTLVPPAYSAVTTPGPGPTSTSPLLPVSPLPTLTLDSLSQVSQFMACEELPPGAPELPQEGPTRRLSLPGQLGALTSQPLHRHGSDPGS

Compound	IC50
N#Cc1ccc(Cn2cncc2CC[C@H]2CCN(Cc3cccc(Cl)c3)C2=O)cc1	0.44 µM
N#Cc1ccc2cc1Oc1ccc3c(c1)[C@@H](CCC3)N1CC[C@H](C1)NCc1cncn1-2	7 µM
